According to patent US20230346889A9, “TREATMENT OF ACUTE HEART FAILURE” (AnaCardio R&D AB, priority 2019, published 2023):
Several values for one entry are separate records, joined by “and”; a condition that tells them apart may be missing. Identical values can stand only once. Entries after “also recorded” stand apart in the source; their conditions may differ.

Tests used:
[1] = test system: phosphorylation of serine 23-24 on troponin I; assay: Cardiomyocyte protein immunoblotting of troponin I phosphorylation; assay type: cell-based, mouse; settings: for troponin I serine 23-24 phosphorylation signal: 15 min treatment, vs placebo
Method: Isolated cardiomyocytes were treated for 15 min in different conditions (Placebo, Ghrelin, D-Lys 3 GHS-R1a, D-Lys 3 GHS-R1a+Ghrelin). Thereafter cardiomyocytes were pelleted and homogenated. Protein lysates were separated by electrophoresis and transferred onto membranes. Membranes were incubated with primary antibody: rabbit phospho-troponin I (cardiac) ([…]) antibody (Cell Signaling #4004), mouse troponin 1 (Millipore MAB1691A). Then infrared-labelled secondary antibodies (IRDye 680 and IRDye 800, 1:5000, Licor) were used. Immunoreactive bands were analyzed using the Odyssey Infrared Imaging System. Band densities were quantified with Image J, normalized to GAPDH and final data expressed as fold increase compared to Placebo group.

[2] = test system: patients with advanced CHF and reduced EF; assay: Trial QTc interval (12-lead ECG, Bazett); assay type: in vivo, human
Method: A plethysmographic based (finger-cuff) approach was used to measure blood pressure (Nexfin®, BMEYE B.V., Amsterdam, The Netherlands). Nexfin was also used for heart rate monitoring. Heart rate and blood pressure data were measured continuously, beat-by-beat, throughout the study protocol. The data was then averaged over 15 minutes following the Innocor measurements. In addition EKG was assessed before start of and during infusion at 60 and 120 minutes and after the ad lib lunch. QT intervals were measured in the precordial lead V5 in 12-lead surface ECGs, at 50 mm/sec paper speed and 10 mm/mV amplitude. Heart rate corrected QT intervals (QTc) were manually calculated with the Bazett formula, QTc=QT/RR^1/2, using the RR interval preceding the measured QT interval. The mean QTc from 3 heart beats was recorded.
(§1) The difference in change in heart rate between the groups was quantified. Bradycardia was defined as a reduction in heart rate of >15 beats per minute, to a heart rate <40 beats per minute, an increase in PQ time by >20 ms, or AV block II-III. In individual patients, tachycardia was defined as an increase in heart rate by >10 beats per minute or heart rate >110 beats per minute. Ventricular extraystoles were quantified and ventricular tachycardia was defined as non-sustained if ≥3 beats in a row up to ≤30 seconds, and sustained if >30 seconds. Supra-ventricular arrhythmia was defined as ectopic atrial tachycardia, atrial flutter or atrial fibrillation, or AV-nodal tachycardia of >3 seconds duration. Ghrelin may […] hERG channels and as such cause a prolongation of the QTc interval on the EKG, which theoretically could predispose to arrhythmia. Therefor we monitored QTc.

[3] = test system: patients with advanced CHF and reduced EF; assay: Trial safety and clinical outcomes (hypotension, arrhythmia, ischemia, symptoms, events); assay type: in vivo, human
Method: Safety outcomes included reduction in systolic blood pressure, hypotension, and symptomatic hypotension, prolongation of the QTc, ischemia, and arrhythmia during or after infusion, and clinical outcomes.
The following symptoms were assessed as yes or no prior to infusion and after 30, 60, 120 min and 30 min after infusion and at the 2-5 days follow-up; headache, dizziness, dyspnea, central chest pain, flush, sleepiness, upset stomach and other symptoms. The following signs were recorded prior to start of infusion and after lunch; rales, peripheral oedema, jugular venous distension, hepatomegaly and S3 gallop.
Hypotension was assessed in two ways: The difference in change in blood pressure between the groups was quantified, and hypotension in any one patient was defined as a drop of systolic blood pressure of >20 mm Hg or to <80 mm Hg.
as §1
Ischemia was assessed in two ways: The difference in change in troponin T between the groups was quantified, and ischemia in any one patient was defined as symptoms of ECG changes consistent with ischemia, or a rise in troponin T of >50%.
Patients were followed in the medical record until 30 Apr. 2017. Outcomes were freedom from all-cause death; all cause death or HF hospitalization; all cause death or heart transplantation or left ventricular assist device, and a combination of all these.

[4] = After infusion, prior to discharge

In the case of CCCCCCCC(=O)OC[C@H](NC(=O)[C@H](CO)NC(=O)CN)C(=O)N[C@@H](Cc1ccccc1)C(=O)N[C@@H](CC(C)C)C(=O)N[C@@H](CO)C(=O)N1CCC[C@H]1C(=O)N[C@@H](CCC(=O)O)C(=O)N[C@@H](Cc1cnc[nH]1)C(=O)N[C@@H](CCC(N)=O)C(=O)N[C@@H](CCCNC(=N)N)C(=O)N[C@H](C(=O)N[C@@H](CCC(N)=O)C(=O)N[C@@H](CCC(N)=O)C(=O)N[C@@H](CCCNC(=N)N)C(=O)N[C@@H](CCCCN)C(=O)N[C@@H](CCC(=O)O)C(=O)N[C@@H](CO)C(=O)N[C@@H](CCCCN)C(=O)N[C@@H](CCCCN)C(=O)N1CCC[C@H]1C(=O)N1CCC[C@H]1C(=O)N[C@@H](C)C(=O)N[C@@H](CCCCN)C(=O)N[C@@H](CC(C)C)C(=O)N[C@@H](CCC(N)=O)C(=O)N1CCC[C@H]1C(=O)N[C@@H](CCCNC(=N)N)C(=O)O)C(C)C [Ghrelin], the “total troponin I expression” value [1] is reported as “without change”, the “troponin I serine 23-24 phosphorylation signal” value [1] is reported as “less cTnI phosphorylation (hypophosphorylation)” and the “troponin I serine 23-24 phosphorylation signal” value ([1]; listed as ghrelin) is reported as “lower compared to placebo”. The “Maximal QTc prolongation from baseline” value ([2]; 2-5 days after) was “+47 ms”, the “Median (interquartile range) changes in QTc from baseline” value (“Median (interquartile range) changes” below) ([2]; 2-5 days after) was −4 (−34 to +4) ms and the “Maximal QTc prolongation from baseline” value [2, 4] was “+47 ms”. The “Median (interquartile range) changes” value [2, 4] was “+18 (−10 to +30) ms”, the “Maximal QTc prolongation from baseline” value ([2]; During infusion, 60 minutes) was “+36 ms” and the “Median (interquartile range) changes” value ([2]; During infusion, 60 minutes) was “+4 (−7 to +21) ms”. For the same compound, the “Maximal QTc prolongation from baseline” value ([2]; During infusion, 120 minutes) was “+45 ms”, the “Median (interquartile range) changes” value ([2]; During infusion, 120 minutes) was “+8 (−4 to +26) ms” and the “change in QTc” value ([2]; in vivo) was “nominal but not significant increase”. The “troponin T in the one patient with >50% increase” value (“troponin T … with >50% increase” below) ([3]; Baseline) was 31 ng/L, the patients with flush ([3]; at 60 min, vs. 0 placebo, p=0.006) was 7 and the “troponin T … with >50% increase” value ([3]; at FU) was 164 ng/L. The incidence of hypotension ([3]; drop of systolic BP >20 mm Hg or to <80 mm Hg) was “no incidence of hypotension; also recorded: no events of hypotension or symptomatic hypotension”, the “troponin T … with >50% increase” value ([3]; during infusion (successive samples)) was 38 ng/L and 42 ng/L and 43 ng/L and 34 ng/L and the “patients with a >50% increase in troponin T” value ([3]; ghrelin group (n = 15)) was “One”. For the same compound, the “effect on heart rate” value ([3]; human, in vivo) was “no effect”, the “incidence of ventricular tachy or brady arrhythmias” value ([3]; human, in vivo) was “no effect” and the “symptoms or EKG changes consistent with ischemia” value ([3]; human, in vivo) was “no symptoms or EKG changes consistent with ischemia”. For the same compound, the “clinical events vs placebo” value ([3]; over 90 days follow-up) was “no differences in clinical events”.
